In publication PMC6036094 (International Journal of Medical Sciences, 2018):
Where two headings read alike, the source gives them in different places.

Type: in vivo, Male Wistar rats
Details: for Concentration in kidneys / Concentration in small intestine / Kidney-to-plasma concentration ratio / Skin tissue-to-plasma concentration ratio / Small intestine-to-plasma concentration ratio / Concentration in skin tissue: mean ± SD; for concentration at 1 h / concentration at 8 h / concentration at 24 h: male, Wistar, rat, po
[1] = 1 to 24 h after oral administration

With `Cc1ccc([C@@H]2O[C@H](CO)[C@@H](O)[C@H](O)[C@H]2O)cc1Cc1ccc(-c2ccc(F)cc2)s1` [Canagliflozin, canagliflozin] the Concentration in kidneys (1 h after oral administration) was 802.7 ± 269.2 ng/g, the “Concentration in small intestine” value (1 h after oral administration) was 2925.2 ± 1074.2 ng/g and the Kidney-to-plasma concentration ratio (1 h after oral administration) was 3.69±2.84. For the same molecule, the “Skin tissue-to-plasma concentration ratio” value (1 h after oral administration) was 0.18±0.18, the “Small intestine-to-plasma concentration ratio” value (1 h after oral administration) was 12.93±9.88 and the Concentration in kidneys (8 h after oral administration) was 1014.1 ± 306.0 ng/g. The “Concentration in skin tissue” value (8 h after oral administration) was 82.6 ± 22.9 ng/g, the “Concentration in small intestine” value (8 h after oral administration) was 440.1 ± 117.2 ng/g and the Kidney-to-plasma concentration ratio (8 h after oral administration) was 2.11±0.54. The “Skin tissue-to-plasma concentration ratio” value (8 h after oral administration) was 0.17±0.03, the “Small intestine-to-plasma concentration ratio” value (8 h after oral administration) was 0.92±0.20 and the Concentration in kidneys (24 h after oral administration) was 636.2 ± 222.5 ng/g. For the same molecule, the “Concentration in skin tissue” value (24 h after oral administration) was 20.1 ± 11.6 ng/g, the “Concentration in small intestine” value (24 h after oral administration) was 325.9 ± 218.0 ng/g and the Kidney-to-plasma concentration ratio (24 h after oral administration) was 7.55±2.62. For the same molecule, the “Skin tissue-to-plasma concentration ratio” value (24 h after oral administration) was 0.26±0.20 and the “Small intestine-to-plasma concentration ratio” value (24 h after oral administration) was 4.05±2.83.
With `OC[C@H]1O[C@@H](c2ccc(F)c(Cc3cc4ccccc4s3)c2)[C@H](O)[C@@H](O)[C@@H]1O` [Ipragliflozin, ipragliflozin] the “Time course of kidney-to-plasma concentration ratio” value [1] was “tended to increase”, the “Time course of skin tissue-to-plasma concentration ratio” value [1] was “increased in a time-dependent manner” and the “Skin tissue-to-plasma concentration ratio” value (1 h after oral administration) was 0.45±0.20. The “Skin tissue-to-plasma concentration ratio” value (1 h after oral administration, listed as ipragliflozin) was 0.45 ± 0.20, the “Skin tissue-to-plasma concentration ratio” value (24 h after oral administration) was 5.82±3.66 and the “Skin tissue-to-plasma concentration ratio” value (24 h after oral administration, listed as ipragliflozin) was 5.82 ± 3.66. For the same molecule, the concentration at 1 h (kidneys) was 1420 ± 405 ng/g, the concentration at 8 h (kidneys) was 1090 ± 456 ng/g and the concentration at 24 h (kidneys) was 301 ± 86.9 ng/g. The concentration at 1 h (skin tissue) was 152 ± 53.4 ng/g, the concentration at 8 h (skin tissue) was 168 ± 28.7 ng/g and the concentration at 24 h (skin tissue, 1 mg/kg) was 90.6 ± 38.9 ng/g. It also gave a concentration at 1 h (small intestine) of 730 ± 377 ng/g and a concentration at 8 h (small intestine) of 348 ± 105 ng/g.
With `CCc1ccc(Cc2ccc3c(c2)[C@]2(OC3)O[C@H](CO)[C@@H](O)[C@H](O)[C@H]2O)cc1` [Tofogliflozin, tofogliflozin] the “Time course of kidney-to-plasma concentration ratio” value [1] was “increased time-dependently”, the concentration at 1 h (kidneys) was 848 ± 116 ng/g and the concentration at 8 h (kidneys) was 492 ± 101 ng/g. It also gave a concentration at 24 h (kidneys) of 201 ± 42.9 ng/g, a concentration at 1 h (skin tissue) of 103 ± 29.2 ng/g and a concentration at 8 h (skin tissue) of 27.1 ± 3.2 ng/g. The concentration at 1 h (small intestine) was 1360 ± 513 ng/g and the concentration at 8 h (small intestine) was 250 ± 114 ng/g.
For `CCOc1ccc(Cc2cc([C@@H]3O[C@H](CO)[C@@H](O)[C@H](O)[C@H]3O)ccc2Cl)cc1` [Dapagliflozin, dapagliflozin], the concentration at 1 h (kidneys) was 1030 ± 521 ng/g, the concentration at 8 h (kidneys) was 531 ± 191 ng/g and the concentration at 24 h (kidneys) was 170 ± 40.2 ng/g. The concentration at 1 h (skin tissue) was 42.6 ± 24.7 ng/g, the concentration at 8 h (skin tissue) was 13 ± 5 ng/g and the concentration at 1 h (small intestine) was 37.9 ± 10.3 ng/g. The concentration at 8 h (small intestine) was 19.7 ± 6.7 ng/g.
For `CCOc1ccc(Cc2cc([C@@H]3S[C@H](CO)[C@@H](O)[C@H](O)[C@H]3O)c(OC)cc2C)cc1` [Luseogliflozin, luseogliflozin], the concentration at 1 h (kidneys) was 94.9 ± 74.3 ng/g, the concentration at 8 h (kidneys) was 80.1 ± 51.7 ng/g and the concentration at 1 h (small intestine) was 251 ± 178 ng/g.
